The values that follow come from ChEMBL document CHEMBL1201862, “PubChem BioAssay data set” (2004).

The term EC50 denotes the concentration giving half of the maximal effect. Broadly, the IC50 is the concentration at which inhibition is half-maximal. The AC50 is the concentration at which the activity in the assay is half-maximal.

Assay [1] in a line: NIH-3T3 fibroblast cytotoxicity, dose response, cytotoxicity control, cell-based, fluorescence, Alamar Blue, secondary assay (AID 2327).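 Also: NIH-3T3 mouse fibroblasts cultured with fluconazole at 8 µg/mL.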 It counts as functional.
In assay [2] the test system is Streptococcus sp. 'group A'. As to the kind of experiment: growth inhibition of control SK(-) GAS strain, dose response, counter-screen for streptokinase expression inhibitor project, luminescence, kanamycin, BacTiterGlo, confirmation (AID 1900). Type of assay: functional, organism-based. In general terms: Counterscreens check selectivity or assay interference.
Assay [3] in a line: cells. Type of assay: functional, cell-based.
Assay [4] can be described thus: C. albicans growth with fluconazole, confirmation, fluorescence, retest (AID 2467). Type of assay: functional, cell-based.
Assay [5] can be described thus: inhibitors of intracellular T. cruzi replication, confirmation, NIH3T3 host cells, beta-gal luminescence (AID 2044).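 Also: intracellular parasites grown in NIH/3T3 mouse fibroblasts as host cells; luminescent beta-galactosidase reporter signal from transgenic T. cruzi replicating inside host cells; inhibitors lower the luminescence signal.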 It counts as functional, cell-based.
Assay [6] can be described thus: cells. Type of assay: functional, cell-based. This is another data set of the same source.
Assay [7] concerns the target T1, Serine/threonine-protein phosphatase (Candida dubliniensis (strain CD36 / CBS 7987 / NCPF 3949 / NRRLY-17841) (Yeast), UniProt B9W6M3).
T1 sequence (B9W6M3 whole entry): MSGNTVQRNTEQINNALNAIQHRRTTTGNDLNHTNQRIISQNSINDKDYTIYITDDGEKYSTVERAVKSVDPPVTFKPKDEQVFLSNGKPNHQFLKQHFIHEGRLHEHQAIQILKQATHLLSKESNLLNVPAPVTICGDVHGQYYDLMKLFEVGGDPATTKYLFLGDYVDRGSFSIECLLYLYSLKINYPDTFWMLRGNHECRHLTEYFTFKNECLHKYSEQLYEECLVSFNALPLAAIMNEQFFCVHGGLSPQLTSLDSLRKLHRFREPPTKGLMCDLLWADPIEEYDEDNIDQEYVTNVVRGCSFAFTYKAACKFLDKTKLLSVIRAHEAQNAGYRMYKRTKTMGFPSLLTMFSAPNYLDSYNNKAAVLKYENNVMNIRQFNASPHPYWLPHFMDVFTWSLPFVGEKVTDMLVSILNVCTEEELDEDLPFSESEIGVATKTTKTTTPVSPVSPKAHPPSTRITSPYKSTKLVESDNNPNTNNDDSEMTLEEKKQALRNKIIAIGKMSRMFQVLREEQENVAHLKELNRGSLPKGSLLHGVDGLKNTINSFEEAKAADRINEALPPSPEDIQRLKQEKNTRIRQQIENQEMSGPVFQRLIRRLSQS
As to the kind of experiment: calcineurin pathway inhibitors in yeast reporter, dose response, S. cerevisiae, CDRE-lacZ, luminescence, secondary (AID 2388).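 Also: yeast reporter cells carrying a calcineurin-responsive lacZ construct stimulated with calcium chloride; luminescent beta-galactosidase reporter signal in whole cells rather than isolated phosphatase activity; potency for inhibition where a drop in reporter signal means calcineurin blockade.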 Type of assay: functional, cell-based.

Assay [8] in a line: cytotoxicity toward NIH3T3 fibroblasts, dose response, counter-screen, cell-based, ATP luminescence, mouse fibroblasts (AID 2010).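 Also: cells exposed to compound for about 90 hours before reading.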 It counts as functional.
The next assay has as its system Streptococcus. The assay is described as follows: Group A Streptococcus viability loss, dose response, counter-screen for streptokinase expression inhibitor project, luminescence, BacTiterGlo (AID 1915).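 Also: potency for reduction of bacterial viability or growth.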 Type of assay: functional, organism-based.
In a further assay the target is T2, Hexokinase HKDC1 (Homo sapiens, UniProt Q2TB90).
T2 sequence (Q2TB90 whole entry): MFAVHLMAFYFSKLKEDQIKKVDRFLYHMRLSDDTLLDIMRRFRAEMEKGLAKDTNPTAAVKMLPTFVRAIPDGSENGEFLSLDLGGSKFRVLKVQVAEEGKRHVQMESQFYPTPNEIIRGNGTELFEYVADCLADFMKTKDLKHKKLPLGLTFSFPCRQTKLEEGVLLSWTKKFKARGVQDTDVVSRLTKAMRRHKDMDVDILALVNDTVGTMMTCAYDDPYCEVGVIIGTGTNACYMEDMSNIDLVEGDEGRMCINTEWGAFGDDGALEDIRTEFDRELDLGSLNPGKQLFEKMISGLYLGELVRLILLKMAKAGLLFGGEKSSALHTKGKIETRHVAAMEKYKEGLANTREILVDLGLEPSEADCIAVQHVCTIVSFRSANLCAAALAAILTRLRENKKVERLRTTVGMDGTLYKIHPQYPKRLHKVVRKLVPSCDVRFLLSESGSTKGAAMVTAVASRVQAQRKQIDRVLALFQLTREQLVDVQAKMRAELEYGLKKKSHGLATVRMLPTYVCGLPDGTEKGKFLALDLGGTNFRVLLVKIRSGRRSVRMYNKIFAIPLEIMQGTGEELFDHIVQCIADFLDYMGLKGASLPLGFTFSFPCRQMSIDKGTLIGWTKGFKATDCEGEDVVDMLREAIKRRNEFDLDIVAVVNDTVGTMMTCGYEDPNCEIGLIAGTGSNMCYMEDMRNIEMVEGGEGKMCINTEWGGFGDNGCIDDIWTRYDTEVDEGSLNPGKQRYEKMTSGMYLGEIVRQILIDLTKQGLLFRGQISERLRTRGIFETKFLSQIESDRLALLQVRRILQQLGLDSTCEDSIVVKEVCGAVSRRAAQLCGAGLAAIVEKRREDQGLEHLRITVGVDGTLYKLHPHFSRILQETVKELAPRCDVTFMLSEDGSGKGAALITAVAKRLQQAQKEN
As to the kind of experiment: HKDC1 hexokinase activators, dose response, biochemical, W721R variant (AID 504730). Type of assay: functional.

The target in the next assay is Nonstructural protein 1 (Influenza A virus, UniProt Q194T2). Type of assay: functional, Influenza A virus (A/California/07/2009(H1N1)).
Nonstructural protein 1, sequence (Q194T2 whole entry): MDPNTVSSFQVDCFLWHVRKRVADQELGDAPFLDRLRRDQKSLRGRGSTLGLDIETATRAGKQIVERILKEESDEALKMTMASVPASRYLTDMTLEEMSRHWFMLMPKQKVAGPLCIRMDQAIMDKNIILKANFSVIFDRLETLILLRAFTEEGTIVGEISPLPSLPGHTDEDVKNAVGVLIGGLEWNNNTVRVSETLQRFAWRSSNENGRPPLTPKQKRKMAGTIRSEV
Another assay addresses T3, Hexokinase-1 (Homo sapiens, UniProt P19367).
T3 sequence (P19367 whole entry): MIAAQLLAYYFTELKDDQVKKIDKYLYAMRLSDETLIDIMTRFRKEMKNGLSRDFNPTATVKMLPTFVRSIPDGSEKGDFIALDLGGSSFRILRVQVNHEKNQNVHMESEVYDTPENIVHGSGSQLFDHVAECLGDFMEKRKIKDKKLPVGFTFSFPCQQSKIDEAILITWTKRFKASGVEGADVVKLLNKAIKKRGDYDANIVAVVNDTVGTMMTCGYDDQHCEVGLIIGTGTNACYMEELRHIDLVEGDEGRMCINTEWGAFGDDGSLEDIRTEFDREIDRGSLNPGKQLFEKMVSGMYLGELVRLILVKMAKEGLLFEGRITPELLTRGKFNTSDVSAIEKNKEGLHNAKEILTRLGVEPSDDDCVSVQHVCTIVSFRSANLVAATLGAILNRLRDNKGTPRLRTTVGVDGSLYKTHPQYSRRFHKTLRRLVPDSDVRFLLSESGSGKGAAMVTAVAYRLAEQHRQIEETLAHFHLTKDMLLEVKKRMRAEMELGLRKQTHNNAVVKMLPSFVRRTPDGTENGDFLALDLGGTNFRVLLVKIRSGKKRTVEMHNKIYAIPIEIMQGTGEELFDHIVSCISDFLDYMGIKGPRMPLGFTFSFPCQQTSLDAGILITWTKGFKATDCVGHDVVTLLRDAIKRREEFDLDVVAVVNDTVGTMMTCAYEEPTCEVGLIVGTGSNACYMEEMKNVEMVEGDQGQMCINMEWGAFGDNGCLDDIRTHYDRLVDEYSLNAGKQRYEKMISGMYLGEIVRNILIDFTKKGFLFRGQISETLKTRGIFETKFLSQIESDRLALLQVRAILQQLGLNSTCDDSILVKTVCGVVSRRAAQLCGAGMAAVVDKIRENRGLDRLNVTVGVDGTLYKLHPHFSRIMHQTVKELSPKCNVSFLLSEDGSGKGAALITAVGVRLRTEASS
The assay is described as follows: hexokinase 1 activators, dose response, selectivity assay for HKDC1 activator project, biochemical (AID 504762). Type of assay: functional.

The subject of a further assay is HEK293. As to the kind of experiment: inhibitors of LMP1-driven NF-kB reporter, dose response, cell-based, HEK293, luciferase, cherry-pick (AID 588343). It counts as functional. The note with it: Homo sapiens.
A further assay has as its system INS1. As to the kind of experiment: beta cell apoptosis inhibitors, cytokine rescue, dose response, luminescence, retest (AID 449756).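 Also: cell death triggered by IL-1 beta plus TNF-alpha plus IFN-gamma mixture; protective hits raise ATP signal compared with cytokine alone wells.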 It counts as functional, cell-based. The note with it: Rattus norvegicus.
For assay [9], the target named is ATP-dependent molecular chaperone HSP82 (Candida albicans (strain WO-1) (Yeast), UniProt C4YTQ8). The assay is described as follows: loss of DOC-induced GRE-beta-galactosidase reporter signal, dose response, Hsp90 inhibitor project, S. cerevisiae, luminescence (AID 2400).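 Also: beta-galactosidase luminescence from glucocorticoid response element reporter as proxy for Hsp90 function; inhibitor potency where signal loss means Hsp90 inhibition.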 It counts as functional, cell-based.
ATP-dependent molecular chaperone HSP82, sequence (C4YTQ8 whole entry): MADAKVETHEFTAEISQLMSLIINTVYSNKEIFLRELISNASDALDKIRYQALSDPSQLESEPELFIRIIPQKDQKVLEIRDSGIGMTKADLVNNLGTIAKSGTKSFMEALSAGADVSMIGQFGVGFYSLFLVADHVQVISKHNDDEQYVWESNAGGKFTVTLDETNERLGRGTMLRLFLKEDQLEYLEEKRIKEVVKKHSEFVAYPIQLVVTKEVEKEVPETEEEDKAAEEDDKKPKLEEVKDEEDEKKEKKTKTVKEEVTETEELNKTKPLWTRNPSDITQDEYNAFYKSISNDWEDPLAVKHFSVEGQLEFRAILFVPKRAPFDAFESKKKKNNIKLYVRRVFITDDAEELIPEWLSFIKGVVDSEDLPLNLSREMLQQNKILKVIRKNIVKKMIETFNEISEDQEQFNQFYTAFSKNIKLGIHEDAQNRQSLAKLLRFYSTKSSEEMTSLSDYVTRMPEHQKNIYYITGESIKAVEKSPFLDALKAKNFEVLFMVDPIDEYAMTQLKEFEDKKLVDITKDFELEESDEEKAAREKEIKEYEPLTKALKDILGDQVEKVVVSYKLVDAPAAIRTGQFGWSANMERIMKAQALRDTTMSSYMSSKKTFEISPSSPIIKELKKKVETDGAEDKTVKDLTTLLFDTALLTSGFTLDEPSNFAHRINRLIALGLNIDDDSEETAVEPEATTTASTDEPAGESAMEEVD
A short description of assay [10]: Shn3 3'UTR reporter inhibitors, dose response, cell-based, Clone20 osteoblasts, firefly luciferase, cherry-picked (AID 624132).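 Also: firefly luciferase luminescence from reporter carrying the Shn3 3'UTR in osteoblasts.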 Type of assay: functional.
Assay [11] is described as follows: NIH-3T3 fibroblast cytotoxicity, dose response, cytotoxicity control for antifungal single agent project, cell-based, Alamar Blue, dry powder (AID 602188). Type of assay: functional. For orientation: The colour change of resazurin is a common sign of viable cells or microbes.
The nature of assay [12]: HepG2 cell cytotoxicity, dose response, cytotoxicity control for Shn3 inhibitor project, CellTiter-Glo, cherry-picked (AID 624134). Type of assay: functional, cell-based. (In general: ATP-based viability assays read luminescence as a measure of living cells.)
Assay [13] is described as follows: control 3'UTR Renilla luciferase suppression, dose response, counter-screen for Shn3 inhibitor project, cell-based, Clone20-Shn3RL, cherry-picked (AID 624133). Type of assay: functional.
Assay [14] has as its target T4, Sphingosine 1-phosphate receptor 4 (Homo sapiens, UniProt O95977).
T4 sequence (O95977 whole entry): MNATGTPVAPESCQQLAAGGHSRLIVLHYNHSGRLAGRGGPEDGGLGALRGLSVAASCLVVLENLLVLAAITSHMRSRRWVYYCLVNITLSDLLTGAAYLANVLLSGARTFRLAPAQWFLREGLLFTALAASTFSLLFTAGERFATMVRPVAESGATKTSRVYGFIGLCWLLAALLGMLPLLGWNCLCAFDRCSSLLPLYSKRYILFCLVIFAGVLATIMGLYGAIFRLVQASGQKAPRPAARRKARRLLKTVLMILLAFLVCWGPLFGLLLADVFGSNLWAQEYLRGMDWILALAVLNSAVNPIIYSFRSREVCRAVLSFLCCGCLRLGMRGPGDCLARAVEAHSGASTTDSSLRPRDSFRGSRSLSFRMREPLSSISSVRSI
The assay is described as follows: Late-stage fluorescence dose response cell-based assay to identify agonists of the Sphingosine 1-Phosphate Receptor 4 (S1P4): purchased compounds EC50. [Related pubchem assays (depositor defined):AID1509, AID1523, AID1563, AID1686, AID1701, AID1801]. Type of assay: functional.

Assay [15] addresses DNA damage-inducible transcript 3 protein (Mus musculus, UniProt P35639). It counts as functional, Cricetulus griseus.
The target of a further assay is T5, X-box-binding protein 1 (Homo sapiens, UniProt P17861).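 Also: confirmatory dose-response counter-screen serving a CHOP assay.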
T5 sequence (P17861 whole entry): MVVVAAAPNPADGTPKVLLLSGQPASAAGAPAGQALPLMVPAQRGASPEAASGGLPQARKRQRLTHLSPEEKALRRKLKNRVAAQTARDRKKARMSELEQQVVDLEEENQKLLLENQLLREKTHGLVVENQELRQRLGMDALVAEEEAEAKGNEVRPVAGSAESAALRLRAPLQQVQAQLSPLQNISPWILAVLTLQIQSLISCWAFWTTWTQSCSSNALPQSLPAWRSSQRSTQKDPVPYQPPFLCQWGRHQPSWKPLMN
It counts as functional, Cricetulus griseus.

In the next assay the test system is H9c2. The assay is described as follows: cells. It counts as functional, cell-based. The note with it: Rattus norvegicus, H9c2, Myocardium.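 Also: confirmatory concentration-response retest of ultra-high-throughput screening hits for modulation of myocardial damage; cell death induced by hydrogen peroxide oxidative stress; compound pretreatment for 60 min then peroxide exposure for 2 h; potency is for protecting the cells against peroxide damage rather than for killing them.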

Calls of active or inactive are those of the source.

DNA damage-inducible transcript 3 protein, sequence (P35639 whole entry): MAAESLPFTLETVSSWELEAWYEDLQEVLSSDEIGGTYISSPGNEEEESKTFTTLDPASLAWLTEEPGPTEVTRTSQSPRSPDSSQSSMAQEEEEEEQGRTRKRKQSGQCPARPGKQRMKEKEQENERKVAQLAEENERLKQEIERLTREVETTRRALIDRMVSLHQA

With `O=C(NNC(=S)Nc1ccc(Cl)c(Cl)c1)c1ccccn1`, the EC50 in assay [1] was 42 µM (inconclusive); in [2], 2.3 µM (active); in the assay “cells [3]”, 10.5 µM (active); in assay [4], 0.853 µM (active); in [5], 1.53 µM (active); in “cells [6]” it was > 350 µM (not active). The EC50 in assay [7] was > 180 µM (inactive); in assay [8], 5.02 µM (active); with Streptococcus, 3.32 µM (active); on Hexokinase HKDC1, 2.2 µM (active); on Hexokinase-1 it was > 80 µM (inactive); in assay [9], > 150 µM (inactive). For the same molecule, the IC50 at Nonstructural protein 1 is 5.57 µM (active). Moreover, the AC50 was 6.08 µM (active) with HEK293; 1.06 µM (active) in the assay on INS1; 2.33 µM (active) in assay [10]; 2.98 µM (active) in [11]; 3.72 µM (active) in assay [12]; 2.44 µM (active) in [13].

For the molecule `Cc1ccc(Cn2nc(C)c(C(=O)OC(C)C(=O)NCc3ccccc3)c2Cl)cc1` (stereo not drawn), the EC50 in [14] is > 50 µM (inactive).

For `CCOC(=O)c1c(C)[nH]c(O)c1/C=N/c1ccc(Cl)cc1`, the “Absolute IC50 (CHOP)” value in assay [15] was determined as 10 µM. Besides, the “Absolute IC50 (XBP1)” value on X-box-binding protein 1 was determined as 10 µM. Moreover, the IC50 with H9c2 is 13.8 µM (active).
